In ChEMBL document CHEMBL4837202, “Design, synthesis of novel celastrol derivatives and study on their antitumor growth through HIF-1α pathway” (Eur J Med Chem, 2021):
pIC50: −log10 of the molar value. Values after ≈ are worked out from the molar mass of the structure shown. Active and inactive are the calls of the source. The calls are words filed in the database; no cut-off is given here.

How the values were obtained:
Hep 3B2 [1] = assay: Inhibition of cell migration in human Hep3B cells at incubated for 48 hrs by scratch wound healing assay; assay type: functional, cell-based; details: dose 1-10 µM
Hep 3B2 [2] = assay: Induction of apoptosis in human Hep3B cells assessed as late apoptotic cells at 10 uM incubated for 24 hrs by PI and annexin V-FITC staining based flow cytometry (reference value: 1.6%); assay type: functional
HCT-116 [3] = assay: Antitumour activity against human HCT-116 cells xenografted in nude BALB/c mouse assessed as tumour growth inhibition at 10 mg/kg, ip administered for 20 days relative to control; assay type: functional; set-up: scale not given: the % may be the effect or the level left; details: time 20 day
HCT-116 [4] = assay: Antitumour activity against human HCT-116 cells xenografted BALB/c mouse with assessed as morphological changes in tumour tissue at 5 mg/kg, ip administered every day measured after 21 days H and E staining based optical microscopic method; assay type: functional, organism-based; details: time 21.0 day
Hep 3B2 [5] = assay: Antiproliferative activity against human Hep3B cells assessed as reduction in colony formation incubated for 7 days by crystal violet staining based assay; assay type: functional, cell-based; details: dose 1-10 µM, time 7.0 day
Hep 3B2 [6] = assay: Induction of apoptosis in human Hep3B cells assessed as late apoptotic cells at 1 uM incubated for 24 hrs by PI and annexin V-FITC staining based flow cytometry (reference value: 1.6%); assay type: functional
Hep 3B2 [7] = assay: Induction of apoptosis in human Hep3B cells assessed as viable cells at 10 uM incubated for 24 hrs by PI and annexin V-FITC staining based flow cytometry (reference value: 97.0%); assay type: functional; details: read-out: Activity
Hep 3B2 [8] = assay: Induction of apoptosis in human Hep3B cells assessed as viable cells at 3 uM incubated for 24 hrs by PI and annexin V-FITC staining based flow cytometry (reference value: 97.0%); assay type: functional; details: read-out: Activity
Hep 3B2 [9] = assay: Induction of apoptosis in human Hep3B cells assessed as late apoptotic cells at 3 uM incubated for 24 hrs by PI and annexin V-FITC staining based flow cytometry (reference value: 1.6%); assay type: functional
Hep 3B2 [10] = assay: Induction of apoptosis in human Hep3B cells assessed as necrotic cells at 1 uM incubated for 24 hrs by PI and annexin V-FITC staining based flow cytometry (reference value: 0.1%); assay type: functional
HCT-116 [11] = assay: Antitumour activity against human HCT-116 cells xenografted BALB/c mouse with assessed as morphological changes in tumour tissue at 10 mg/kg, ip administered every day measured after 21 days H and E staining based optical microscopic method; assay type: functional, organism-based; details: time 21.0 day
Hep 3B2 [12] = assay: Cytotoxicity against human Hep3B cells assessed as reduction in cell viability incubated for 24 hrs under normaxic condition by MTT assay; assay type: cell-based
Hep 3B2 [13] = assay: Induction of apoptosis in human Hep3B cells assessed as necrotic cells at 10 uM incubated for 24 hrs by PI and annexin V-FITC staining based flow cytometry (reference value: 0.1%); assay type: functional
[14] = Solubility of the compound in water measured by UV-Visible spectral analysis; assay type: physicochemical
Hep 3B2 [15] = assay: Induction of apoptosis in human Hep3B cells assessed as necrotic cells at 3 uM incubated for 24 hrs by PI and annexin V-FITC staining based flow cytometry (reference value: 0.1%); assay type: functional
Hep 3B2 [16] = assay: Inhibition of cell migration in human Hep3B cells at incubated for 24 hrs by scratch wound healing assay; assay type: functional, cell-based; details: dose 1-10 µM
Hep 3B2 [17] = assay: Induction of apoptosis in human Hep3B cells assessed as early apoptotic cells at 1 uM incubated for 24 hrs by PI and annexin V-FITC staining based flow cytometry (reference value: 1.2%); assay type: functional
Hep 3B2 [18] = assay: Induction of apoptosis in human Hep3B cells assessed as early apoptotic cells at 3 uM incubated for 24 hrs by PI and annexin V-FITC staining based flow cytometry (reference value: 1.2%); assay type: functional
[19] = Toxicity in BALB/c mouse xenografted […] HCT-116 cells assessed as effect on body weight at 5 mg/kg, ip administered every day measured after 21 days; assay type: organism-based; details: in vivo, 504 h, time 21 day
HCT-116 [20] = assay: Antitumour activity against human HCT-116 cells xenografted in nude BALB/c mouse assessed as tumour growth inhibition at 5 mg/kg, ip administered for 20 days relative to control; assay type: functional; set-up: scale not given: the % may be the effect or the level left; details: time 20 day
Hep 3B2 [21] = assay: Induction of apoptosis in human Hep3B cells assessed as viable cells at 1 uM incubated for 24 hrs by PI and annexin V-FITC staining based flow cytometry (reference value: 97.0%); assay type: functional; details: read-out: Activity
Hep 3B2 [22] = assay: Induction of apoptosis in human Hep3B cells assessed as early apoptotic cells at 10 uM incubated for 24 hrs by PI and annexin V-FITC staining based flow cytometry (reference value: 1.2%); assay type: functional
[23] = Toxicity in BALB/c mouse xenografted […] HCT-116 cells assessed as effect on body weight at 10 mg/kg, ip administered every day measured after 21 days; assay type: organism-based; details: in vivo, 504 h, time 21 day
Hep 3B2 [24] = assay: Inhibition of hypoxia-induced HIF1alpha protein expression in human Hep3B cells incubated for 12 hrs in presence of 1% O2 under hypoxic condition by Western blot analysis; assay type: functional, cell-based; details: dose 1-10 µM

## CC1=C(O)C(=O)C=C2C1=CC=C1[C@@]2(C)CC[C@@]2(C)[C@@H]3C[C@](C)(C(=O)OCCOc4cnc5ccccc5c4)CC[C@]3(C)CC[C@]12C
Hep 3B2 [1]
  inhibition: Dose-Dependent Effect
Hep 3B2 [2]
  Activity: 5.7%
HCT-116 [3]
  Activity: 74.3%
HCT-116 [4]
  Activity: Active
Hep 3B2 [5]
  Activity: Dose-Dependent Effect
Hep 3B2 [6]
  Activity: 1.4%
Hep 3B2 [7]
  viability at 10 µM: 87.9%
Hep 3B2 [8]
  viability at 3 µM: 96.1%
Hep 3B2 [9]
  Activity: 2%
Hep 3B2 [10]
  Activity: 0.2%
HCT-116 [11]
  Activity: Active
Hep 3B2 [12]
  pIC50: 4.77
Hep 3B2 [13]
  Activity: 0.2%
[14]
  solubility: 28.1 µg/mL (≈ 45.2 µM)
Hep 3B2 [15]
  Activity: 0%
Hep 3B2 [16]
  inhibition: Dose-Dependent Effect
Hep 3B2 [17]
  Activity: 1.9%
Hep 3B2 [18]
  Activity: 1.9%
[19]
  Activity: Non-Toxic
HCT-116 [20]
  Activity: 60.38%
Hep 3B2 [21]
  viability at 1 µM: 96.6%
Hep 3B2 [22]
  Activity: 6.2%
[23]
  Activity: Non-Toxic
Hep 3B2 [24]
  Activity: Dose-Dependent Effect

## CC1=C(O)C(=O)C=C2C1=CC=C1[C@@]2(C)CC[C@@]2(C)[C@@H]3C[C@](C)(C(=O)OCC(=O)Nc4ccc(F)cn4)CC[C@]3(C)CC[C@]12C
Hep 3B2 [12]
  pIC50: 5.90

## CC1=C(O)C(=O)C=C2C1=CC=C1[C@@]2(C)CC[C@@]2(C)[C@@H]3C[C@](C)(C(=O)OCC(=O)Nc4cnc5ccccc5c4)CC[C@]3(C)CC[C@]12C
Hep 3B2 [12]
  pIC50: 5.98

## CC1=C(O)C(=O)C=C2C1=CC=C1[C@@]2(C)CC[C@@]2(C)[C@@H]3C[C@](C)(C(=O)OCCOc4cccc5ncccc45)CC[C@]3(C)CC[C@]12C
Hep 3B2 [12]
  pIC50: 4.84

## CCOP(=O)(OCC)C(NC(=O)COC(=O)[C@]1(C)CC[C@]2(C)CC[C@]3(C)C4=CC=C5C(=CC(=O)C(O)=C5C)[C@]4(C)CC[C@@]3(C)[C@@H]2C1)c1ccccc1 (some centres not stated)
Hep 3B2 [12]
  pIC50: 5.93

## CC1=C(O)C(=O)C=C2C1=CC=C1[C@@]2(C)CC[C@@]2(C)[C@@H]3C[C@](C)(C(=O)O)CC[C@]3(C)CC[C@]12C [CELASTROL]
Hep 3B2 [12]
  pIC50: 6.12
[14]
  solubility: 38.2 µg/mL (≈ 84.8 µM)

## O=c1[nH]cc(F)c(=O)[nH]1 [FLUOROURACIL]
HCT-116 [3]
  Activity: 59.58%
HCT-116 [11]
  Activity: Active
[23]
  Activity: Non-Toxic

## CC1=C(O)C(=O)C=C2C1=CC=C1[C@@]2(C)CC[C@@]2(C)[C@@H]3C[C@](C)(C(=O)OCCOc4cc(C)oc(=O)c4)CC[C@]3(C)CC[C@]12C
Hep 3B2 [12]
  pIC50: 5.94

## CC1=C(O)C(=O)C=C2C1=CC=C1[C@@]2(C)CC[C@@]2(C)[C@@H]3C[C@](C)(C(=O)OCC(=O)Nc4ccnc5ccccc45)CC[C@]3(C)CC[C@]12C
Hep 3B2 [12]
  pIC50: 5.40

## CC1=C(O)C(=O)C=C2C1=CC=C1[C@@]2(C)CC[C@@]2(C)[C@@H]3C[C@](C)(C(=O)OCCOc4cc(=O)oc5ccccc45)CC[C@]3(C)CC[C@]12C
Hep 3B2 [12]
  pIC50: 3.87

## CC1=C(O)C(=O)C=C2C1=CC=C1[C@@]2(C)CC[C@@]2(C)[C@@H]3C[C@](C)(C(=O)OCC(=O)NCc4cn(-c5ccc(Cl)c(Cl)c5)nn4)CC[C@]3(C)CC[C@]12C
Hep 3B2 [12]
  pIC50: 5.61

## CCOP(=O)(OCC)C(NC(=O)COC(=O)[C@]1(C)CC[C@]2(C)CC[C@]3(C)C4=CC=C5C(=CC(=O)C(O)=C5C)[C@]4(C)CC[C@@]3(C)[C@@H]2C1)c1ccc(F)cc1 (some centres not stated)
Hep 3B2 [12]
  pIC50: 5.63

## CC1=C(O)C(=O)C=C2C1=CC=C1[C@@]2(C)CC[C@@]2(C)[C@@H]3C[C@](C)(C(=O)OCC(=O)NCc4cn(-c5ccc(C)cc5)nn4)CC[C@]3(C)CC[C@]12C
Hep 3B2 [12]
  pIC50: 5.57

## CC1=C(O)C(=O)C=C2C1=CC=C1[C@@]2(C)CC[C@@]2(C)[C@@H]3C[C@](C)(C(=O)OCCOc4ccc5cccnc5c4)CC[C@]3(C)CC[C@]12C
Hep 3B2 [12]
  pIC50: 5.28

## CC1=C(O)C(=O)C=C2C1=CC=C1[C@@]2(C)CC[C@@]2(C)[C@@H]3C[C@](C)(C(=O)OCC(=O)NCc4cn(-c5ccccc5)nn4)CC[C@]3(C)CC[C@]12C
Hep 3B2 [12]
  pIC50: 5.94

## CCOP(=O)(OCC)C(NC(=O)COC(=O)[C@]1(C)CC[C@]2(C)CC[C@]3(C)C4=CC=C5C(=CC(=O)C(O)=C5C)[C@]4(C)CC[C@@]3(C)[C@@H]2C1)c1ccc(OC)cc1 (some centres not stated)
Hep 3B2 [12]
  pIC50: 5.83

## COc1ccc(-n2cc(CNC(=O)COC(=O)[C@]3(C)CC[C@]4(C)CC[C@]5(C)C6=CC=C7C(=CC(=O)C(O)=C7C)[C@]6(C)CC[C@@]5(C)[C@@H]4C3)nn2)cc1
Hep 3B2 [12]
  pIC50: 5.04

## CC1=C(O)C(=O)C=C2C1=CC=C1[C@@]2(C)CC[C@@]2(C)[C@@H]3C[C@](C)(C(=O)OCCOc4ccc5ccc(=O)oc5c4)CC[C@]3(C)CC[C@]12C
Hep 3B2 [12]
  pIC50: 5.61

## CC1=C(O)C(=O)C=C2C1=CC=C1[C@@]2(C)CC[C@@]2(C)[C@@H]3C[C@](C)(C(=O)OCC(=O)Nc4cccc5cccnc45)CC[C@]3(C)CC[C@]12C
Hep 3B2 [12]
  pIC50: 5.77

## CC1=C(O)C(=O)C=C2C1=CC=C1[C@@]2(C)CC[C@@]2(C)[C@@H]3C[C@](C)(C(=O)OCC(=O)Nc4cc(C)on4)CC[C@]3(C)CC[C@]12C
Hep 3B2 [12]
  pIC50: 5.51

## CC1=C(O)C(=O)C=C2C1=CC=C1[C@@]2(C)CC[C@@]2(C)[C@@H]3C[C@](C)(C(=O)OCC(=O)Nc4ccc5ncccc5c4)CC[C@]3(C)CC[C@]12C
Hep 3B2 [12]
  pIC50: 5.54

## CCOP(=O)(OCC)C(NC(=O)COC(=O)[C@]1(C)CC[C@]2(C)CC[C@]3(C)C4=CC=C5C(=CC(=O)C(O)=C5C)[C@]4(C)CC[C@@]3(C)[C@@H]2C1)c1ccc(C)cc1 (some centres not stated)
Hep 3B2 [12]
  pIC50: 5.34

## CC1=C(O)C(=O)C=C2C1=CC=C1[C@@]2(C)CC[C@@]2(C)[C@@H]3C[C@](C)(C(=O)OCC(=O)Nc4ccncc4)CC[C@]3(C)CC[C@]12C
Hep 3B2 [12]
  pIC50: 3.63

## CC1=C(O)C(=O)C=C2C1=CC=C1[C@@]2(C)CC[C@@]2(C)[C@@H]3C[C@](C)(C(=O)OCC(=O)NCc4cn(-c5ccc(Cl)cc5)nn4)CC[C@]3(C)CC[C@]12C
Hep 3B2 [12]
  pIC50: 4.66

## CC1=C(O)C(=O)C=C2C1=CC=C1[C@@]2(C)CC[C@@]2(C)[C@@H]3C[C@](C)(C(=O)OCC(=O)Nc4ccc(F)nc4)CC[C@]3(C)CC[C@]12C
Hep 3B2 [12]
  pIC50: 5.38

## CC1=C(O)C(=O)C=C2C1=CC=C1[C@@]2(C)CC[C@@]2(C)[C@@H]3C[C@](C)(C(=O)OCC(=O)Nc4cccc5ncccc45)CC[C@]3(C)CC[C@]12C
Hep 3B2 [12]
  pIC50: 5.95
